Assay results from the NIST ThermoML archive (doi:10.1007/s10765-006-0063-0).

What was measured:
[1] = 101.33 kPa, Liquid; for speed of sound: Sing-around technique in a fixed-path interferometer
[2] = xn = mol fraction of the nth substance listed; conditions: 101 kPa, Liquid, Sing-around technique in a fixed-path interferometer

C1COCCO1 [1,4-dioxane]
[1]
Conditions | mass density [kg/m3] | speed of sound [m/s]
283.15 K | 1045.2 | 1409.6
298.15 K | 1027.9 | 1343.6
313.15 K | 1011 | 1278.8

C1COCCO1 [1,4-dioxane] + C1CCCCC1
[2]
Conditions | speed of sound [m/s]
283.15 K, x1 = 0.0502 | 1323.1
283.15 K, x1 = 0.0999 | 1319.7
283.15 K, x1 = 0.1953 | 1315.8
283.15 K, x1 = 0.2899 | 1315.6
283.15 K, x1 = 0.3996 | 1318.4
283.15 K, x1 = 0.5017 | 1324.5
283.15 K, x1 = 0.6007 | 1333.5
283.15 K, x1 = 0.699 | 1346.1
283.15 K, x1 = 0.7956 | 1362.2
283.15 K, x1 = 0.8994 | 1383.9
283.15 K, x1 = 0.9446 | 1394.9
298.15 K, x1 = 0.0535 | 1250
298.15 K, x1 = 0.1053 | 1246.9
298.15 K, x1 = 0.1998 | 1244.4
298.15 K, x1 = 0.3003 | 1245
298.15 K, x1 = 0.4026 | 1248.6
298.15 K, x1 = 0.5006 | 1255.2
298.15 K, x1 = 0.5971 | 1264.5
298.15 K, x1 = 0.7028 | 1278.6
298.15 K, x1 = 0.8089 | 1296.9
298.15 K, x1 = 0.9038 | 1318.4
298.15 K, x1 = 0.9485 | 1330.2
313.15 K, x1 = 0.0497 | 1177.3
313.15 K, x1 = 0.102 | 1174.3
313.15 K, x1 = 0.1944 | 1172.4
313.15 K, x1 = 0.2926 | 1173.7
313.15 K, x1 = 0.3973 | 1178.3
313.15 K, x1 = 0.4969 | 1185.8
313.15 K, x1 = 0.5992 | 1196.7
313.15 K, x1 = 0.6988 | 1211
313.15 K, x1 = 0.7966 | 1229
313.15 K, x1 = 0.8972 | 1251.3
313.15 K, x1 = 0.9505 | 1264.9
